Source: patent US20050123633A1, “Biological activity-promoting compositions containing soybean germ-origin isoflavone aglycon” (priority 2002, published 2005)

Experiments:
Assay type in all cases: in vivo, rat
OVX female SD rats [1] = test: Body weight measurement in OVX rats on high-fat feed; settings: 17 β-estradiol 1 μg per animal per day, mean ± SD
From the text: (§1) 1) Female SD rats (seven weeks) were procured, and were preliminarily kept for one week. The healthy female SD rats to be used as subjects (eight weeks) were raised in groups with uniform body weight. Rats other than those in the Sham group were ovarectomized (OVX). The Sham group was only laparotomized. After preliminarily keeping for one week after the OVX procedure, the rats were allowed free intake of high-fat feed having the composition shown in Table 2 for a period of 28 days starting on the day following preliminary keeping.
(§2) The rats were also allowed free intake of well water (3 ppm chlorine added). In addition, the environment of the animal facility had constant temperature and humidity of 23±2° C. and 55±10%. The atmosphere conditioning method involved ventilation (15 cycles/h), and the light time was from 8 am to 8 pm. The keeping apparatuses were stainless steel metabolic cages.
The body weights of all rats were measured once on days 0, 7, 14, 21 and 28.
(§3) Evaluation was made using the two-sided test, where significance levels were taken as 5 and 1%.

OVX female SD rats [2] = test: Serum cholesterol measurement; settings: after 28 days administration and 24-hour fasting, isoflavone aglycones 20 mg per kg body weight, 17 β-estradiol 1 μg per animal per day, mean ± SD; for Cholesterol ester (%): cholesterol ester ratio
From the text: as §1, §2
(§4) Upon completion of administration on day 28, 24-hour fasting was performed, and the rats were necropsied under ether anesthetization in order to collect blood from the abdominal aorta. Regarding serum cholesterol, measurement of total serum cholesterol, HDL cholesterol, LDL cholesterol and cholesterol ester ratio were carried out, and blood neutral fat (TG), blood free fatty acid (FFA) and leptin were measured using enzymatic methods. In addition, the uterus weight per 100 g body weight was measured for the necropsied females rats. Also, body fat determination was made by measuring the weight of removed posterior abdominal wall fat, mesenteric fat, perirenal fat and periovarian fat per 100 g of body weight. The thymus weights for the necropsied female rats were measured based on the weight per 100 g of body weight.
as §3

OVX female SD rats [3] = test: Leptin level measurement; settings: after 28 days administration and 24-hour fasting, isoflavone aglycones 20 mg per kg body weight, 17 β-estradiol 1 μg per animal per day, mean ± SD
From the text: as §1, §2, §4
(§5) The results of measurement for each group were expressed as mean values±standard deviations for each of the measured parameters, and significant differences were determined using Student's t-test. Evaluation was made using the two-sided test, where significance levels were taken as 5 and 1%.

OVX female SD rats [4] = test: Blood free fatty acid (FFA) measurement; settings: after 28 days administration and 24-hour fasting, isoflavone aglycones 20 mg per kg body weight, 17 β-estradiol 1 μg per animal per day, mean ± SD
From the text: as §1, §2, §4, §5

OVX female SD rats [5] = test: Body fat determination (weight of removed fat); settings: at necropsy after 28 days, isoflavone aglycones 20 mg per kg body weight, 17 β-estradiol 1 μg per animal per day, mean ± SD
From the text: as §1, §2, §4, §5

OVX female SD rats [6] = test: Urine NO2/NO3 measurement (24-hour accumulated urine); settings: 17 β-estradiol 1 μg per animal per day, mean ± SD
From the text: as §1, §2, §4, §5

OVX female SD rats [7] = test: Thymus weight measurement; settings: for Change in Thymus Weight: at necropsy after 28 days, isoflavone aglycones 20 mg per kg body weight, 17 β-estradiol 1 μg per animal per day, mean ± SD
From the text: as §1, §2, §4, §5

OVX female SD rats [8] = test: Blood neutral fat (TG) measurement; settings: after 28 days administration and 24-hour fasting, isoflavone aglycones 20 mg per kg body weight, 17 β-estradiol 1 μg per animal per day, mean ± SD
From the text: as §1, §2, §4, §5

OVX female SD rats [9] = test: Overall evaluation of biological activity promotion over all measured parameters; settings: at an administered amount of 1/4000 relative to isoflavone aglycones
From the text: as §1
Consequently, results were obtained that caused concern over side effects when administered at high dosages.

[10] = day 0, isoflavone aglycones 20 mg per kg body weight in feed
[11] = day 7, isoflavone aglycones 20 mg per kg body weight in feed
[12] = day 14, isoflavone aglycones 20 mg per kg body weight in feed
[13] = day 21, isoflavone aglycones 20 mg per kg body weight in feed
[14] = day 28, isoflavone aglycones 20 mg per kg body weight in feed
[15] = day 0, isoflavone aglycones 20 mg per kg body weight
[16] = day 7, isoflavone aglycones 20 mg per kg body weight
[17] = day 14, isoflavone aglycones 20 mg per kg body weight
[18] = day 21, isoflavone aglycones 20 mg per kg body weight
[19] = day 28, isoflavone aglycones 20 mg per kg body weight

Structure (SMILES)	Change in Body Weight (OVX female SD rats [1]; [10]) [g]	Change in Body Weight (OVX female SD rats [1]; [11]) [g]	Change in Body Weight (OVX female SD rats [1]; [12]) [g]	Change in Body Weight (OVX female SD rats [1]; [13]) [g]	Change in Body Weight (OVX female SD rats [1]; [14]) [g]	Serum LDL cholesterol (OVX female SD rats [2]) [mg/dL]	Serum Total cholesterol (OVX female SD rats [2]) [mg/dL]	Change in Leptin (OVX female SD rats [3]) [ng/mL]	Change in FFA (blood free fatty acid) (OVX female SD rats [4]) [mg/dL]	Body Fat: Mesenteric fat (OVX female SD rats [5])	Body Fat: Periovarian fat (OVX female SD rats [5])	Body Fat: Perirenal fat (OVX female SD rats [5])	Body Fat: posterior abdominal wall fat (OVX female SD rats [5])	Change in NO2/NO3 (urinary) (OVX female SD rats [6]; [15]) [µmol]	Change in NO2/NO3 (urinary) (OVX female SD rats [6]; [16]) [µmol]	Change in NO2/NO3 (urinary) (OVX female SD rats [6]; [17]) [µmol]	Change in NO2/NO3 (urinary) (OVX female SD rats [6]; [18]) [µmol]	Change in NO2/NO3 (urinary) (OVX female SD rats [6]; [19]) [µmol]	Change in Thymus Weight (OVX female SD rats [7])	Change in TG (blood neutral fat) (OVX female SD rats [8]) [mg/dL]	other results
O=c1c(-c2ccc(O)cc2)coc2cc(O)cc(O)c12 [genistein]	197.3 ± 10.18	216.9 ± 8.53	231.9 ± 9.77	249.4 ± 9.81	266.8 ± 8.6	40.6 ± 1.76	85.8 ± 2.53	1.9 ± 0.25	400.0 ± 19.01	2.6 ± 0.14 g/100 g; body weight	3.0 ± 0.26 g/100 g; body weight	3.7 ± 0.17 g/100 g; body weight	2.8 ± 0.25 g/100 g; body weight	6.1 ± 0.34	6.4 ± 0.39	6.3 ± 0.56	6.2 ± 0.40	6.4 ± 0.4	0.110 ± 0.02 g/100 g; body weight	116.9 ± 9.90	–
O=c1c(-c2ccc(O)cc2)coc2cc(O)ccc12 [daidzein]	191.0 ± 7.31	216.1 ± 6.86	230.6 ± 6.58	245.4 ± 7.07	257.4 ± 7.71	36.3 ± 3.45	81.8 ± 2.57	1.7 ± 0.12	379.2 ± 24.45	2.8 ± 0.18 g/100 g; body weight	3.1 ± 0.17 g/100 g; body weight	3.5 ± 0.20 g/100 g; body weight	2.6 ± 0.23 g/100 g; body weight	6.0 ± 0.53	6.4 ± 0.54	6.4 ± 0.43	6.6 ± 0.40	6.0 ± 0.40	0.130 ± 0.02 g/100 g; body weight	104.8 ± 16.71	Serum HDL cholesterol (OVX female SD rats [2]): 42.6 ± 2.25 mg/dL; Cholesterol ester (%) (OVX female SD rats [2]): 70.1 ± 3.01%; thymus weight relative to the comparative group 1 (Sham) and the test group 1 (OVX), in words (OVX female SD rats [7]; 28 days): increase in weight
C[C@]12CC[C@@H]3c4ccc(O)cc4CC[C@H]3[C@@H]1CC[C@@H]2O [estradiol, 17 β-estradiol]	192.5 ± 7.12	–	–	–	–	38.2 ± 1.74	72.1 ± 3.86	0.7 ± 0.28	362.8 ± 24.41	2.5 ± 0.19 g/100 g; body weight	2.8 ± 0.27 g/100 g; body weight	3.2 ± 0.22 g/100 g; body weight	1.9 ± 0.10 g/100 g; body weight	6.1 ± 0.29	7.0 ± 0.60	7.8 ± 0.59	9.0 ± 0.76	9.4 ± 0.39	0.112 ± 0.01 g/100 g; body weight	105.1 ± 5.37	stimulatory (agonistic) action with respect to biological activity, in words (OVX female SD rats [9]): high; Serum HDL cholesterol (OVX female SD rats [2]): 35.9 ± 3.38 mg/dL; Cholesterol ester (%) (OVX female SD rats [2]): 70.7 ± 2.80%
